{"source": "patent US20230121926A1", "about": "“METHODS FOR TISSUE REGENERATION AND KITS THEREFOR” (THE BOARD OF TRUSTEES OF THE LELAND STANFORD JUNIOR …, priority 2020, published 2023)", "key": {"[1]": {"assay": "Dose of VS-6062 delivered to porcine fresh wounds (tissue level by wound depth)", "assay_type": "in vivo, red Duroc pigs", "experimental": "Porcine deep partial-thickness excisional wound model: Prior to operation, animals were administered oral amoxicillin 10 mg/kg for 24 hours. General anesthesia was administered by Veterinary Services personnel and was established with intramuscular telazol 6-8 mg/kg, administered once as a pre-anesthetic. Animals were then intubated using an endotracheal tube and maintained on 1.5-3% of inhaled isoflurane throughout the procedure. The hair on the back was clipped and skin was cleansed initially with Betadine© solution following by a 70% alcohol rinse. Excisional wounds were created with a standard electric Zimmer dermatome (Zimmer Biomet, Warsaw, Ind.). Up to eight wounds, approximately 5 cm×5 cm in size, were created on each lateral flank, with 3-5 cm intervals between wounds (FIG. 1A). Multiple dermatome passes were performed to create deep partial-thickness wounds of uniform 0.07 inch depth. The wounds were randomly assigned to receive either FAKI hydrogel (W_IF), blank hydrogel (‘placebo’, W_H), or no hydrogel (wounded control, W) (n=6-9 wounds per condition). […] In a time-dependent study, the amount of VS-6062 detected at approximately 0.5 mm wound depth over 24 hours ranged from 30-100 microG/g tissue by weight. The amount of VS-6062 detected beyond 1 mm wound depth was less than 5 microG/g tissue."}, "[2]": {"tested_on": "dermal fibroblasts", "assay": "Fibroblast-populated 3D collagen scaffold under strain (alignment, contraction)", "assay_type": "cell-based, human", "experimental": "Mechanotransduction shifts human fibroblast heterogeneity. […] To confirm the translational potential of the results in the porcine model on the role of mechanotransduction in the fibrotic response, dermal fibroblasts isolated from human surgical patients were then evaluated. Cells were seeded within 3D collagen scaffolds at densities of 2.0 mg/mL collagen and 200,000 cells/mL (FIG. 2A). To artificially increase tissue forces, the mechanical strain applied to fibroblasts was precisely manipulated as described in Chen, K. et al, “Role of boundary conditions in determining cell alignment in response to stretch”, PNAS 115, 986-991, doi:10.1073/pnas.1715059115 (2018), the entire disclosure of which is hereby incorporated by reference in its entirety, and shown in FIG. 2B and FIG. 9A. […] The efficacy of this in vitro system to mimic the fibrogenic phenotype observed in healing wounds and resultant scar was confirmed. […] Fibroblast reorganization of ECM drives collagen remodeling and development of long, aligned collagen fibers characteristic of fibrosis. […]\nFibroblast-populated 3D collagen scaffold experiments. […] Nine Titanium (IV) oxide paint dots (Sigma-Aldrich) were applied on the surface of the central region of the gel (boxes in FIG. 9A) to track and quantify the imposed strains. […]"}, "[3]": {"tested_on": "deep partial-thickness excisional wounds", "assay": "Porcine deep partial-thickness excisional wound model", "assay_type": "in vivo, red Duroc pigs", "experimental": "Porcine deep partial-thickness excisional wound model: Prior to operation, animals were administered oral amoxicillin 10 mg/kg for 24 hours. General anesthesia was administered by Veterinary Services personnel and was established with intramuscular telazol 6-8 mg/kg, administered once as a pre-anesthetic. Animals were then intubated using an endotracheal tube and maintained on 1.5-3% of inhaled isoflurane throughout the procedure. The hair on the back was clipped and skin was cleansed initially with Betadine© solution following by a 70% alcohol rinse. Excisional wounds were created with a standard electric Zimmer dermatome (Zimmer Biomet, Warsaw, Ind.). Up to eight wounds, approximately 5 cm×5 cm in size, were created on each lateral flank, with 3-5 cm intervals between wounds (FIG. 1A). Multiple dermatome passes were performed to create deep partial-thickness wounds of uniform 0.07 inch depth. The wounds were randomly assigned to receive either FAKI hydrogel (W_IF), blank hydrogel (‘placebo’, W_H), or no hydrogel (wounded control, W) (n=6-9 wounds per condition). Animals were given oral amoxicillin 10 mg/kg post-operatively twice a day for 5 days total. Wound dressings, including FAKI hydrogel patches, were changed every other day for the first three weeks after initial injury until POD 21 (FIG. 1C). Thereafter, dressings were changed twice per week until POD 90. Animals were subject to short-term sedation for each dressing change. The actual dose delivered to the wound was tested on porcine fresh wounds (red Duroc pigs). In a time-dependent study, the amount of VS-6062 detected at approximately 0.5 mm wound depth over 24 hours ranged from 30-100 microG/g tissue by weight. The amount of VS-6062 detected beyond 1 mm wound depth was less than 5 microG/g tissue. Wound closure, visual scar assessment, and viscoelastic analyses. Wounds were monitored photographically at each dressing change. Days to wound closure, defined as complete re-epithelialization without open wound area, were determined for each wound based on gross photographic assessment. Quantification of scar metrics were performed using a Visual Analog Scale (VAS) for 5 components (vascularity, pigmentation, observer comfort, acceptability, and contour) by a panel of four blinded scar experts. Total scores are calculated as a composite of all 5 scores; lower scores indicate improved scar appearance. A Cutometer (Dual MPA 580, Courage+Khazaka Electronic, Köln, Germany) was used to evaluate the firmness and elasticity of the healing wounds at POD 60. The cutometer measures the vertical deformation of the skin surface by applying a negative pressure (suction) through a small circular diameter (2 mm probe). Cutometer assessment is the gold standard to measure viscoelasticity in human patients. Deformation (suction) for two seconds followed by two seconds of relaxation (no suction) is applied for three cycles. The elasticity ratio (ability for tissue to return back to original setpoint) was measured during the relaxation period (R2 metric). Histological and immunofluorescent staining. […] Masson's Trichrome staining and Picrosirius Red staining were performed. Picrosirius Red-stained images were captured using polarized light microscopy (Leica DM5000 B upright microscope). Collagen fibers were also visualized using Second Harmonic Generation (SHG) on a Leica SP5 upright confocal multi-photon microscope using a […]. SHG images were captured with an excitation wavelength of 860 nm, a pulse length of approximately 100 fs, and an emission filter centered at 445 nm with a 20-nm bandwidth. Forward SHG was used to image fibroblasts and backward SHG was used to image in vivo tissue sections. Analysis of fiber alignment was performed on Picrosirius Red-stained images at 40× magnification using the custom software MatFiber, an intensity-gradient-detection algorithm for analysis of overall alignment of collagen fibers and stress fibers from multiple samples. […]"}, "[4]": {"assay": "Systemic penetration of topically applied FAKI (mass spectrometry of peripheral blood)", "assay_type": "in vivo, pig", "conditions": "topical, approximately 7-10% of total body surface area, three pigs", "experimental": "FIG. 6B. Acute, systemic, and implantation toxicity testing of FAKI hydrogel in the porcine model. Mass spectrometry of peripheral blood samples of FAKI-treated pigs was performed to assess systemic penetration of topically applied FAKI covering approximately 7-10% of the total body surface area relative to serum FAKI levels after oral administration of FAKI from a human study. Serum FAKI concentrations via localized delivery were negligible in three independent experiments collected from three different pigs."}, "[5]": {"tested_on": "human dermal fibroblasts", "assay": "scRNA-seq of strained human dermal fibroblasts in 3D collagen scaffolds", "assay_type": "cell-based", "excerpt": "Using this experimental system, in vivo dermal strain patterns were mimicked, imposing biaxial strain upon the fibroblasts, while also attenuating mechanotransduction in a subset of samples. The collagen scaffolds were enzymatically digested to obtain cellular suspensions of fibroblasts, which were then processed for scRNA-seq, as shown in FIGS. 2A and 2C. All single cell data were initially analyzed in a manner blinded to phenotype of origin. Following log-normalization, pooled data were subjected to semi-supervised Louvain-based clustering and embedded into UMAP-space (Seurat). Eight transcriptionally distinct subpopulations (cluster 0 to cluster 7) were identified among cells from the pooled data superset, as shown in FIG. 2D. When unblinded, considerable permissiveness among clusters were found across both phenotypes and biological replicates, consistent with the known heterogeneity among human dermal fibroblasts (FIG. 2D).\nFibroblast-populated 3D collagen scaffold experiments. Dermal fibroblasts were isolated from both porcine and human skin samples and cultured separately. Porcine skin was obtained from the unwounded (normal skin) areas of a euthanized red duroc pig. Human skin samples were obtained under the approved IRB (#54225) and collected from three surgical procedures; a breast mastectomy, an abdominoplasty, and a thighplasty (n=3 patients). Fibroblasts were isolated by mechanical and enzymatic digestion and cultured under standard conditions until passage 3. The primary fibroblast cultures were then used to create fibroblast-populated collagen hydrogels at final concentration of 200 k cells/mL and 2 mg/mL collagen (PureCol, Advanced Biomatrix, San Diego, Calif.), following protocols as described in Chen, K. et al, “Role of boundary conditions in determining cell alignment in response to stretch”, PNAS 115, 986-991, doi:10.1073/pnas.1715059115 (2018), the entire disclosure of which is hereby incorporated by reference in its entirety. In brief, collagen scaffolds were formulated in a cruciform shape in petri dishes with a PDMS coating (˜4 mm) on the bottom (FIG. 2B). Pins were pushed through the hydrogel cruciform arms to constrain the scaffolds in both directions for a 24h pre-culture period before being subjected to either no strain, 10% equibiaxial strain, or strain+FAKI treatment for an additional 48 hours (FIGS. 2A-2B, FIG. 9A). FAKI treatment was administered by adding 20 mM FAKI in DMSO into the culture media of the scaffolds to achieve a final concentration of 10 micromolar FAKI for 48 hours. Strain was imposed by removing the anchoring pins, manually extending the hydrogel cruciform arms, and pushing the pins back to hold the arms in the new, extended position. Nine Titanium (IV) oxide paint dots (Sigma-Aldrich) were applied on the surface of the central region of the gel (boxes in FIG. 9A) to track and quantify the imposed strains. A digital camera was used to image the markers before and after strain. Photographs of marker position were used to compute a single homogenous deformation gradient tensor F that provided the least-squares best fit mapping of the 9 marker positions from the undeformed to deformed positions by solving the overdetermined matrix equation: […]\nSingle cell barcoding, library preparation, and single cell RNA sequencing. After two days of increased (induction of strain) or inhibited (induction of strain+FAKI) mechanotransduction, collagen scaffolds were micro-dissected and enzymatically digested to obtain cellular suspensions of human fibroblasts for droplet-based microfluidic single cell RNA sequencing (scRNA-seq) using the 10× Chromium Single Cell platform (FIG. 2C) (Single Cell 3′ v3, 10× Genomics, USA). A droplet of the cell suspensions, reverse transcription master mix, and partitioning oil was loaded onto a single cell chip and processed on the Chromium Controller. […]"}, "[6]": {"conditions": "POD 60, versus untreated wounds"}, "[7]": {"conditions": "porcine wound tissue, treated vs untreated"}, "[8]": {"conditions": "10% strain, 10 micromolar FAKI, 48 hours"}}, "data": [{"smiles": "CN(c1ncccc1CNc1nc(Nc2ccc3c(c2)CC(=O)N3)ncc1C(F)(F)F)S(C)(=O)=O", "note": "[VS-6062]", "values": [{"measurement": "amount of VS-6062 detected in wound tissue", "setting": "[1]; approximately 0.5 mm wound depth, over 24 hours", "result": "30-100 microG/g tissue by weight"}, {"measurement": "amount of VS-6062 detected in wound tissue", "setting": "[1]; beyond 1 mm wound depth", "result": "less than 5 microG/g tissue"}, {"measurement": "fibroblast alignment under uniaxial strain", "setting": "[2]; 10% uniaxial strain, 10 micromolar FAKI", "result": "aligned multi-directionally"}, {"measurement": "contraction assay: fibroblast remodeling of the ECM environment", "setting": "[2]; collagen scaffolds", "result": "hinders the fibroblasts from remodeling (R) the ECM environment"}, {"measurement": "regeneration of secondary structures (hair follicles, cutaneous glands)", "setting": "[3]; Masson's Trichrome, POD 90 and POD 180", "result": "regrowth of hair follicles and other cutaneous glands"}, {"measurement": "wound elasticity (cutometer)", "setting": "[3]; [6]", "result": "increased elasticity"}, {"measurement": "wound firmness (cutometer)", "setting": "[3]; [6]", "result": "decreased firmness"}, {"measurement": "intradermal adipocytes (Perilipin A staining)", "setting": "[3]; POD 90, deep dermal layer", "result": "regeneration of Perilipin A-positive intradermal adipocytes"}, {"measurement": "healing earlier than wounds treated with standard dressings or empty hydrogels", "setting": "[3]; controls healed after POD 24", "result": "more than 10 days"}, {"measurement": "gross appearance of the treated wounds", "setting": "[3]; difference in scarring evident as early as POD 40", "result": "normal appearing skin"}, {"measurement": "collagen structure of healed wounds (Picrosirius Red)", "setting": "[3]; pig, in vivo", "result": "basket weave-like collagen structure characteristic to unwounded porcine skin"}, {"measurement": "protein expression of Collagen I (immunofluorescence)", "setting": "[3]; [7]", "result": "decreased"}, {"measurement": "protein expression of Collagen III (immunofluorescence)", "setting": "[3]; [7]", "result": "decreased"}, {"measurement": "protein expression of MMP1 (immunofluorescence)", "setting": "[3]; [7]", "result": "increased"}, {"measurement": "protein expression of MMP3 (immunofluorescence)", "setting": "[3]; [7]", "result": "increased"}, {"measurement": "protein expression of alpha SMA (immunofluorescence)", "setting": "[3]; [7]", "result": "decreased"}, {"measurement": "time at which wounds were fully healed", "setting": "[3]; sustained release hydrogel scaffold, 5x5 cm wounds", "result": "14±2.3 postoperative day (POD)"}, {"measurement": "CT-FIRE fiber count", "setting": "[3]; trend", "result": "return number of fibers closer to unwounded skin"}, {"measurement": "serum FAKI concentrations via localized delivery", "setting": "[4]", "result": "negligible"}, {"measurement": "expression of AIMP3", "setting": "[5]; [8]", "result": "increased"}, {"measurement": "expression of MMP1", "setting": "[5]; [8]", "result": "increased"}, {"measurement": "expression of Mmp10", "setting": "[5]; [8]", "result": "significantly upregulated"}, {"measurement": "transcription of COL1A1", "setting": "[5]; [8]", "result": "strongly reduced"}, {"measurement": "transcription of COL3A1", "setting": "[5]; [8]", "result": "strongly reduced"}, {"measurement": "strain-induced pro-fibrotic, myofibroblast and mechanotransduction gene expression (ACTA2, PDGFRA, RUNX1, ZEB2, MAPK1, PI3KR1, EGFR, RAC1, YAP1)", "setting": "[5]; strained fibroblasts with FAKI", "result": "abrogated nearly all of these fibrotic signaling changes"}]}]}
